From patent US20200339544A1 (JOINT STOCK COMPANY "BIOCAD", priority 2017, published 2020)

What was measured:
[1] = Chemical stability in human blood plasma; type: in vitro ADME; details: pooled human blood plasma; 10 μm; 4 hours at 37° C.; substance amount remaining
How it was run: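 Percent of parent remaining was derived by comparing HPLC peak areas at time zero and after 4 h at 37 °C. Test compound was at 10 μM in human plasma pooled from ten donors, and proteins were precipitated with acetonitrile before analysis.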

[2] = Enzyme stability in human liver S9 fractions; type: in vitro ADME; details: 0.5 mg/mL pooled human liver S9 fractions; 10 μM compound; 37° C.; pH 7.4; read-out: Stability in liver S9 fractions, Clint
How it was run: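 Compound at 10 μM was incubated at 37 °C with 0.5 mg/mL pooled human liver S9, 2 mM β-NAD and 4 mM MgCl2 in 0.1 M sodium phosphate, pH 7.4, then quenched with acetonitrile and analysed chromatographically. T½ and CLint were derived from the slope of log peak area versus time.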

[3] = Permeability through monolayer of Caco-2 cells; type: in vitro ADME; details: human, Caco-2 monolayer; for Papp A→B at 2 h, 10 µM: pH 6.5 upper / pH 7.4 lower, 2 h at 37° C.; for efflux ratio at 2 h, 10 µM: Papp B-A/Papp A-B
From the text: 2) Assessment of permeability through monolayer of Caco-2 cells.
Assessment of permeability through the monolayer of Caco-2 cells allows to evaluate the ability of the candidate compounds to penetrate through biological membranes by active and passive transport.
Caco-2, the cells of the intestinal epithelium, had been cultured in transwell plate inserts with the filters (with pores of 0.4 μm, BD Falcon with High Density) for 21 days, and then the integrity of the monolayer were estimated with Lucifer Yellow (Sigma-Aldrich, USA) by standard protocol. When setting the A→B transfer (“intestinal lumen”—“blood stream” transfer), solutions of test substances were added in a buffer with pH 6.5 (HBSS, 10 mM HEPES, 15 mM glucose solution) with the concentration of 10 μM into the upper chamber; the lower chamber was filled with a buffer with pH 7.4 (HBSS, 10 mM HEPES, 15 mM Glucose, 1% BSA). When setting B→A transfer (“blood stream”—“intestinal lumen” transfer), the upper chamber was filled with the buffer with pH 6.5, and solutions of the test substances were added in the buffer with pH 7.4 at the concentration of 10 μM in the lower chamber. Propranolol was used as a control substance (as it has high permeability).
After incubating for 2 h at 37° C. under 5% CO2, the amounts of test substances were determined in the upper and lower chambers by HPLC using Agilent1200 chromatograph (Agilent, USA) with preliminary protein precipitation with acetonitrile. We used gradient elution (1 mL/min flow rate). We determined the areas of peaks corresponding to the compounds. On the basis of peak areas in the calibration standards we determined the concentration of compound in the initial solution and in the samples from the wells of the upper and lower chambers. Papp, permeability through the cell layer, was calculated using the following formula:
Papp=(C(t)*V)/(C(0)*t*Area), wherein
The value was calculated with the following formula:
efflux=Papp B-A/Papp A-B, wherein • Papp A-B—the volume of permeability in A→B test; • Papp B-A—he volume of permeability in B→A test.

[4] = target: T1, WT EGFR (Wild-Type EGFR) (Homo sapiens, UniProt P00533); assay: Inhibition of WT EGFR kinase activity (ADP-Glo); type: biochemical
T1 construct: purchased SignalChem
How it was run: (§1)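 Luminescent ADP-Glo readout was used for both wild-type and L858R/T790M EGFR, each run 180 minutes at 37° C. Reactions used a solution of 50 μM ATP with 0.5 mg/mL peptide substrate. Four-parameter logistic curves gave IC50.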

[5] = target: T2, DM EGFR (DoubleMutantEGFR, L828R/T790M) (Homo sapiens, UniProt P00533, L858R/T790M); assay: Inhibition of DM EGFR kinase activity (ADP-Glo); type: biochemical; details: for IC50: inhibition of kinase activity, EGFR DM (L828R/T790M); for SI, IC50(WT)/IC50(DM): selectivity index, kinase EGFR WT vs EGFR DM
T2 construct: purchased SignalChem
How it was run: as §1

SMILES	Stability in blood plasma, % [1]	Intrinsic clearance in human liver S9 fractions at 10 µM [2]	Papp A→B at 2 h, 10 µM [3]	efflux ratio at 2 h, 10 µM [3]	IC50 [4]	IC50 [5]	SI, IC50(WT)/IC50(DM) [5]
C=CC(=O)Nc1cc(Nc2nccc(C(=O)c3ccccc3C(F)(F)F)n2)c(OC)cc1N(C)CCN(C)C [EGFR_3365, N-(2-((2-(dimethylamino)ethyl) (methyl)amino)-4-methoxy-5-((4-(2-(trifluoromethyl)benzoyl)pyrimidin-2-yl)amino)phenyl)acrylamide]	90.3%	13.6 µL/min/mg	5.28 ×10⁻⁶ cm/s	1.29	587 nM	22 nM	26.69
C=CC(=O)Nc1cc(Nc2nccc(C(=O)c3ccc(F)cc3)n2)c(OC)cc1N(C)CCN(C)C [EGFR_3365_10, N-(2-((2-(dimethylamino)ethyl)(methyl)amino)-5-((4-(4-fluorobenzoyl)pyrimidin-2-yl)amino)-4-methoxyphenyl) acrylamide]	94.2%	6.8 µL/min/mg	2.88 ×10⁻⁶ cm/s	0.58	211 nM	7.28 nM	29.06
C=CC(=O)Nc1cc(Nc2nccc(C(=O)c3ccc(OCCC)cc3)n2)c(OC)cc1N(C)CCN(C)C [EGFR_3365_30, N-(2-((2-(dimethylamino)ethyl)(methyl)amino)-4-methoxy-5-((4-(4-propoxybenzoyl)pyrimidin-2-yl)amino)phenyl)acrylamide]	–	1.2 µL/min/mg	4.36 ×10⁻⁶ cm/s	0.5	613 nM	7.69 nM	79.77
C=CC(=O)Nc1cc(Nc2cc(C(=O)c3ccc(OCCC)cc3)ccn2)c(OC)cc1N(C)CCN(C)C [EGFR_3365_50, N-(2-((2-(dimethylamino)ethyl)(methyl)amino)-4-methoxy-5-((4-(4-propoxybenzoyl)pyridin-2-yl)amino)phenyl)acrylamide]	89.0%	1.1 µL/min/mg	2 ×10⁻⁶ cm/s	0.3	32 nM	3.29 nM	9.74
C=CC(=O)Nc1cc(Nc2cc(C(=O)c3ccc(OC)cc3)ccn2)c(OC)cc1N(C)CCN(C)C [EGFR_3365_51, N-(2-((2-(dimethylamino)ethyl)(methyl)amino)-4-methoxy-5-((4-(4-methoxybenzoyl)pyridin-2-yl)amino)phenyl)acrylamide]	–	16.2 µL/min/mg	3.2 ×10⁻⁶ cm/s	1.7	50.8 nM	4.72 nM	10.75
C=CC(=O)Nc1cc(Nc2cc(C(=O)c3ccc(OCC)cc3)ccn2)c(OC)cc1N(C)CCN(C)C [EGFR_3365_52, N-(2-((2-(dimethylamino)ethyl)(methyl)amino)-5-((4-(4-ethoxybenzoyl)pyridin-2-yl)amino)-4-methoxyphenyl) acrylamide]	–	16.6 µL/min/mg	3 ×10⁻⁶ cm/s	1.2	67.9 nM	6.41 nM	10.58
C=CC(=O)Nc1cc(Nc2cc(C(=O)c3ccc(N4CCCC4)cc3)ccn2)c(OC)cc1N(C)CCN(C)C [EGFR_3365_56, N-(2-((2-(dimethylamino)ethyl)(methyl)amino)-4-methoxy-5-((4-(4-(pyrrolidin-1-yl)benzoyl)pyridin-2-yl)amino)phenyl)acrylamide]	83.2%	9.1 µL/min/mg	1.8 ×10⁻⁶ cm/s	1.7	121 nM	6.3 nM	19.14
C=CC(=O)Nc1cc(Nc2nccc(C(=O)c3ccc(N4CCC4)cc3)n2)c(OC)cc1N(C)CCN(C)C [EGFR_3365_58, N-(5-((4-(4-(azetidin-1-yl)benzoyl)pyrimidin-2-yl)amino)-2-((2-(dimethylamino)ethyl)(methyl)amino)-4-methoxyphenyl)acrylamide]	99.7%	17.7 µL/min/mg	5.8 ×10⁻⁶ cm/s	1.1	39.7 nM	2.36 nM	16.81
C=CC(=O)Nc1cc(Nc2nccc(C(=O)c3ccc(N4CC(OC)C4)cc3)n2)c(OC)cc1N(C)CCN(C)C [EGFR_3365_61, N-(2-((2-(dimethylamino)ethyl)(methyl)amino)-4-methoxy-5-((4-(4-(3-methoxyazetidin-1-yl)benzoyl)pyrimidin-2-yl)amino)phenyl)acrylamide]	91.8%	12.8 µL/min/mg	5.5 ×10⁻⁶ cm/s	1.8	53.1 nM	2.76 nM	19.27
C=CC(=O)Nc1cc(Nc2nccc(C(=O)c3ccc(N4CCCC4)cc3)n2)c(OC)cc1N(C)CCN(C)C [EGFR_3365_63, N-(2-((2-(dimethylamino)ethyl)(methyl)amino)-4-methoxy-5-((4-(4-(pyrrolidin-1-yl)benzoyl)pyrimidin-2-yl)amino)phenyl)acrylamide]	100.0%	15.6 µL/min/mg	4.9 ×10⁻⁶ cm/s	1	22.9 nM	0.94 nM	24.32
C=CC(=O)Nc1cc(Nc2nccc(C(=O)c3ccc(OCCCC)cc3)n2)c(OC)cc1N(C)CCN(C)C [EGFR_3365_66, N-(5-((4-(4-butoxybenzoyl)pyrimidin-2-yl)amino)-2-((2-(dimethylamino)ethyl)(methyl)amino)-4-methoxyphenyl)acrylamide]	97.0%	1.3 µL/min/mg	1.3 ×10⁻⁶ cm/s	0.4	46.8 nM	1.86 nM	25.13
C=CC(=O)Nc1cc(Nc2nccc(C(=O)c3ccc(OCCC)cc3OCCC)n2)c(OC)cc1N(C)CCN(C)C [EGFR_3365_70, N-(2-((2-(dimethylamino)ethyl)(methyl)amino)-5-((4-(2,4-dipropoxybenzoyl)pyrimidin-2-yl)amino)-4-methoxyphenyl)acrylamide]	90.0%	0.7 µL/min/mg	2.5 ×10⁻⁶ cm/s	0.4	250 nM	14.7 nM	16.96
C=CC(=O)Nc1cc(Nc2nccc(C(=O)c3ccc(N(CC)CC)cc3)n2)c(OC)cc1N(C)CCN(C)C [EGFR_3365_72, N-(5-((4-(4-(diethylamino)benzoyl)pyrimidin-2-yl)amino)-2-((2-(dimethylamino)ethyl)(methyl)amino)-4-methoxyphenyl)acrylamide]	94.6%	20.2 µL/min/mg	3.5 ×10⁻⁶ cm/s	1.5	55.9 nM	3.71 nM	15.09
C=CC(=O)Nc1cc(Nc2nccc(C(=O)c3ccc(N(C)C)cc3)n2)c(OC)cc1N(C)CCN(C)C [EGFR_3365_73, N-(5-((4-(4-(dimethylamino)benzoyl)pyrimidin-2-yl)amino)-2-((2-(dimethylamino)ethyl) (methyl)amino)-4-methoxyphenyl)acrylamide]	90.5%	11.1 µL/min/mg	5.1 ×10⁻⁶ cm/s	1.6	32.7 nM	2.35 nM	13.89
